Data taken from patent publication US7129271B2, “Compounds for pest control and methods for their use” (The United States of America as represented by the …, priority 2000, dated 2006).
≈ marks a conversion by molar mass, not a printed value. Read-outs that look alike come from different tables or passages of the source.

Experiments:
[1] = system: I. scapularis nymphs, X. cheopis adults, and Ae. aegypti adults; test: Initial screening against all three arthropods (Example 9); format: in vivo; conditions: 24 hours exposure; ticks, fleas, mosquitoes
Procedure: Valencene-13-aldehyde was prepared by oxidation of valencene with SeO2. […] Commercial samples of nootkatone for comparison were obtained from Bedoukian Research, Inc., Danbury, Conn. (semi-synthetic crystalline) and Frutarom, Inc. N.J. (from grapefruit oil). […] The compounds identified by an asterisk—nos.

X. cheopis adults = test: Flea bioassay, treated vials (Example 9); format: in vivo; conditions: 24 h exposure, 95% CI in parentheses
Procedure: Flea Colonies. Adult X. cheopis fleas (1–3 wk old) were obtained from a colony founded more than eight years ago using adults received from Tom Schwan, Rocky Mountain Laboratories, Hamilton, Mont. The area from which these original adult fleas were obtained, and the resulting colony, have no known histories of pesticide exposure.
(§1) Tick and Flea Bioassays. Concentrations of the compounds were prepared by 2-fold serial dilutions of a 0.5% (wt:vol) solution of the extracts in acetone. […] A control treated with acetone only was run with each series. Tick and flea susceptibility was evaluated using a modified disposable pipette method. See, Barnard, D. R., et al., J. Econ. Entomol.
(§2) The inner surface of 2-dram friction cap vials were treated with the compound/acetone solution, or acetone only as a control, and left to air-dry overnight. Three to 4 holes were made in the plastic cap to allow for air exchange. Nymphal ticks and adult fleas were then placed directly into the vials using forceps. Vials containing ticks or fleas were placed in desiccators for 24 h at 21° C. and 90% RH. Morbidity and mortality was recorded at 1, 2, 4, 8, and 24 h after initial exposure.

Ae. aegypti adults = test: Mosquito bottle bioassay (Example 9); format: in vivo; conditions: 24 h exposure, 95% CI in parentheses; for EC90: read-out: LC90 (the source's name)
Procedure: Mosquito Colonies. Aedes aegypti adult mosquitoes were obtained from an existing colony at the Centers for Disease Control and Prevention (CDC), Division of Vector-Borne Infectious Diseases (DVBID), Fort Collins, Colo. This colony has been maintained for over fifteen years with no known history of exposure to pesticides. Mosquitoes were reared at 28° C., 85% RH, and a 14:10 h (light:dark) cycle. Larvae were grown in de-ionized water and fed ground liver powder solution ad libitum. Fourth instars were removed and placed in emergence cages, and adults were fed a 2% sucrose solution until assayed. Adults were exposed to test products at 4–7 d after emergence.
(§3) Mosquit Bioassay. Adult mosquitoes were tested using the bottle bioassay method of Brogden, W. G., and McAllister, J. C., J. Am. Mosq. Control Assoc. 14:159–64 (1998), with minor modifications. Natural product extracts were two-fold serially diluted for a total of 8 concentrations ranging from 0.002% to 0.25% in 1.5 ml of acetone. Individual dilutions were added to 250 ml Wheaton glass bottles and capped. Bottles were manipulated to evenly coat all inner surfaces. The caps were removed and bottles were allowed to air-dry overnight. Once bottles were completely dry, 10–50 adult mosquitoes were aspirated into the bottles. Mosquitoes were held in the bottles for 24 h at 23° C. and 85% RH. Morbidity and mortality were recorded at 15, 30, 45, and 60 min and 24 hour intervals. One bottle for each replicate was treated with acetone only and served as a control. The dose-mortality data was evaluated with probit analysis, using the LdP Line software, to determine LC50 and LC90 values.

Culex p. pipiens = test: Mosquito susceptibility, serial dilutions (Example 8); conditions: in vivo
Ixodes scapularis nymphs = test: Residual activity, treated vials aged before loading (Example 9); format: in vivo
Procedure: as §1, with “acetone. The approximate toxicity of individual compounds was determined with a total of 8 doses ranging from 0.002% to 0.25%.” for “acetone.”, “Entomol. 74:466–69 (1981).” for “Entomol.”
as §2, with “Groups of 10 nymphal I. scapularis and X. cheopis fleas were used in all tests, resulting in a total of 5,240 nymphs and 4,860 fleas exposed to the compounds. The” for “The”

[2] = system: Xenopsylla cheopis adults; test: as above; format: in vivo
Procedure: as §1, with “acetone. The approximate toxicity of individual compounds was determined with a total of 8 doses ranging from 0.002% to 0.25%.” for “acetone.”, “Entomol. 74:466–69 (1981).” for “Entomol.”
as §2, with “Groups of 10 nymphal I. scapularis and X. cheopis fleas were used in all tests, resulting in a total of 5,240 nymphs and 4,860 fleas exposed to the compounds. The” for “The”

Aedes aegypti adults [3] = test: Residual activity, treated bottles aged before loading (Example 9); format: in vivo
Procedure: as §3

I. scapularis nymphs = test: Tick bioassay, modified disposable pipette method, treated vials (Example 9); format: in vivo, Ixodes scapularis
Procedure: Tick Colonies. […] There was no known pesticide used at this location. Ticks were maintained at 21° C., 90% RH, and received a 16:8 h (light:dark) cycle as described in […]. Med. […] Tick and Flea Bioassays. […] A control treated with acetone only was run with each series. Tick and flea susceptibility was evaluated using a modified disposable pipette method. See, Barnard, D. R., et al., J. Econ. […] Three to 4 holes were made in the plastic cap to allow for air exchange. Nymphal ticks and adult fleas were then placed directly into the vials using forceps. Vials containing ticks or fleas were placed in desiccators for 24 h at 21° C. and 90% RH. […] For each time point, if ticks were incapable of movement, maintaining normal posture, leg coordination, ability to right themselves, or any signs of life, they were considered moribund or dead.

[4] = system: ticks, fleas, and mosquitoes; test: Residual activity, overall statements for ticks, fleas and mosquitoes (Example 9); conditions: 1 to 4 weeks after treatment
[5] = system: adult I. scapularis ticks; test: Treated-vial biocidal screening, residual challenge (Example 2); format: in vivo, Ixodes scapularis; conditions: treated vials sat 4 wk; arthropods added for final 24 h
Procedure: (§4) Samples of the compounds listed below Were obtained from Dr. Karchesy, a co-inventor, and screened for biocidal activities against nymphal Ixodes scapularis. In this example, 2% acetone solutions (wt./vol.) of the compounds were applied to inner surfaces of 2-dram friction cap vials. Vials and caps were treated then allowed to dry for a minimum of 4 hours before placing 10 nymphs in each container. These same vials were used to challenge additional nymphs and adult I. scapularis ticks and adult Xenopsylla cheopis fleas through five weeks to observe any possible residual activity.
(§5) Numbers in parentheses refer to length of treatment in terms of hours (h) or weeks (wk). Data is presented in terms of number killed/number tested. For test periods longer than 24 hours, the treated vials were allowed to sit for the stated period after drying (72 h, 4 wk, or 5 wk) and each group of arthropods was added to the vials for the final 24 h of the test period.

[6] = system: nymphal Ixodes scapularis; test: Treated-vial biocidal screening, 2% acetone solutions (Example 2); format: in vivo; conditions: for I. scapularis nymphs (24 h), number killed/number tested: 2% acetone solution (wt./vol.) dried in vials; for I. scapularis nymphs (72 h), number killed/number tested: treated vials sat 72 h, arthropods added for final 24 h
Procedure: as §4, §5

Aedes aegypti adults [7] = test: Treated-vial bioassay on mosquito (Example 3); format: in vivo; conditions: 24 hours challenge
Procedure: as §4
Using a bioassay method similar to that presented in Example #2, the susceptibility of Aedes aegypti adults to the five compounds presented in Example #2 at 24 hours challenge was determined to be 100% mortality except for nootkatin (20% mortality).

[8] = system: adult Xenopsylla cheopis fleas; test: Treated-vial biocidal screening, residual challenge (Example 2); format: in vivo; conditions: treated vials sat 5 wk; arthropods added for final 24 h
Procedure: as §4, §5

[9] = system: ticks, fleas, and mosquitos; test: Bioassay of Example 2 on ticks, fleas and mosquitos (Examples 4 and 6); format: in vivo
Procedure: as §4
Nootkatol was tested using the bioassay presented in Example 2.
Two nootkatone samples were compared to nootkatone isolated from Alaska yellow cedar using the method presented in Example 1. The first sample was a natural extract of nootkatone taken from grapefruit oil purchased commercially. The second sample was a synthetically produced nootkatone purchased commercially.
Both samples were compared to the nootkatone originating from Alaska yellow cedar in terms of their biocidal activities. Using a bioassay method similar to that presented in Example 2, no differences were discernible among the nootkatone samples in terms of their biocidal effect on ticks, fleas and mosquitos.

[10] = system: ticks, fleas, formicids and termites; test: Persistence of biocidal activity, vials treated with 2% solutions (Example 5); format: in vivo
Procedure: as §4
Persistence of biocidal activity was determined for nootkatone and valencene-11,12-epoxide by using the vials as treated with the 2% solutions of Example 2. […] At 11 weeks, the biocidal activity began to dissipate below the 100% mortality level.

Aedes aegypti = test: Mosquito susceptibility (Example 8); conditions: in vivo
nymphal I. scapularis = test: Baseline dose-mortality, method of Maupin and Piesman 1994 (Example 7); format: in vivo; conditions: nymphal ticks
Source text: Baseline dose-mortalities were established for nymphal I. scapularis for nootkatone and valencene-11,12-epoxide using the method described in Maupin, G. O., and Piesman, J., J. Med. Entomol., 31:319–21 (1994).
A comparison of relative potency was made with published data for carbaryl and permethrin (Maupin and Piesman, 1994) and Alaska yellow cedar essential oil (Panella et al., J. Med. Entomol. 34:340–45 (1997) is presented in Table 6.

[11] = Aedes aegypti, 24 h, read-out: LC50
[12] = residual activity at 1 week after treatment
[13] = residual activity at 2 weeks after treatment
[14] = residual activity at 4 weeks after treatment
[15] = 24 h exposure, 95% CI in parentheses

CC1=CCC2C(C1)C2(C)C (stereo not drawn) [Compound 1, 3-Carene]
pesticidal activity in initial screening [1]: no pesticidal activity

CC1=CCC(O)(C(C)C)CC1 (stereo not drawn) [Compound 2, Terpinen-4-ol]
pesticidal activity in initial screening [1]: no pesticidal activity

COc1cc(C(C)C)ccc1C [Compound 3, Methyl carvacrol]
pesticidal activity in initial screening [1]: no pesticidal activity

C=C(CO)C1CCC2=CCC[C@@H](C)[C@]2(C)C1 (stereo partly drawn) [Compound 10, 13-hydroxy-valencene]
LC50 (X. cheopis adults; Xenopsylla cheopis, 24 h, read-out: LC50): 83 mg/L (≈ 377 µM)
LC90 (X. cheopis adults; Xenopsylla cheopis, 24 h, read-out: LC90): 210 mg/L (≈ 953 µM)
LC50 (Ae. aegypti adults; [11]): 34 mg/L (≈ 154 µM)
EC90 (Ae. aegypti adults; Aedes aegypti, 24 h): 140 mg/L (≈ 635 µM)
C. pipiens LD50 (Culex p. pipiens): < 4.5×10^−3
LC50 (Ixodes scapularis nymphs; [12]): 0.0071 (0.0055–0.0091) percent concentration, wt:vol
LC90 (Ixodes scapularis nymphs; [12]): 0.019 (0.014–0.031) percent concentration, wt:vol
LC50 (Ixodes scapularis nymphs; [13]): 0.0083 (0.0057–0.011) percent concentration, wt:vol
LC90 (Ixodes scapularis nymphs; [13]): 0.044 (0.029–0.081) percent concentration, wt:vol
LC50 (Ixodes scapularis nymphs; [14]): 0.031 percent concentration, wt:vol
LC90 (Ixodes scapularis nymphs; [14]): 0.303 percent concentration, wt:vol
LC50 [2, 12]: 0.03 (0.022–0.041) percent concentration, wt:vol
LC90 [2, 12]: 0.113 (0.074–0.226) percent concentration, wt:vol
LC50 [2, 13]: 0.039 (0.029–0.053) percent concentration, wt:vol
LC90 [2, 13]: 0.131 (0.087–0.268) percent concentration, wt:vol
LC50 (Aedes aegypti adults [3]; [12]): 0.024 (0.02–0.028) percent concentration, wt:vol
LC90 (Aedes aegypti adults [3]; [12]): 0.058 (0.046–0.081) percent concentration, wt:vol
LC50 (Aedes aegypti adults [3]; [13]): 0.014 (0.012–0.016) percent concentration, wt:vol
LC90 (Aedes aegypti adults [3]; [13]): 0.021 (0.019–0.027) percent concentration, wt:vol
LC50 (Aedes aegypti adults [3]; [14]): 0.013 (0.0089–0.017) percent concentration, wt:vol
LC90 (Aedes aegypti adults [3]; [14]): 0.04 (0.029–0.074) percent concentration, wt:vol
LC50 (I. scapularis nymphs; Ixodes scapularis, 24 h): 51 mg/L (≈ 231 µM)
LC90 (I. scapularis nymphs; Ixodes scapularis, 24 h, 24 h exposure, 95% CI in parentheses, read-out: LC90): 160 mg/L (≈ 726 µM)
residual activity (in words) [4]: considerable biological activity

CC(C)=CCc1ccc(O)c(=O)cc1C(C)C [Compound 11, Nootkatin]
I. scapularis adults (4 wk), number killed/number tested [5]: 0/5
LC50 (Ae. aegypti adults): 0.852 percent concentration, wt:vol
LC90 (Ae. aegypti adults): 7.869 percent concentration, wt:vol
I. scapularis nymphs (24 h), number killed/number tested [6]: 1/10
I. scapularis nymphs (72 h), number killed/number tested [6]: 0/5
mortality (Aedes aegypti adults [7]): 20%
X. cheopis adults (5 wk), number killed/number tested [8]: 0/5

C=C(C)[C@@H]1CCC2=C[C@@H](O)C[C@@H](C)[C@]2(C)C1 [Compound 12, Nootkatol]
LC50 (X. cheopis adults): 0.024 (0.018–0.034) percent concentration, wt:vol
LC90 (X. cheopis adults): 0.1 (0.065–0.196) percent concentration, wt:vol
LC50 (X. cheopis adults; listed as compound 12): 0.024 percent concentration, wt:vol
biocidal activity compared with nootkatene [9]: essentially equivalent to the activity of nootkatene
LC50 (Ae. aegypti adults): 0.004 (0.0032–0.0048) percent concentration, wt:vol
LC90 (Ae. aegypti adults): 0.01 (0.008–0.014) percent concentration, wt:vol
LC50 (Ae. aegypti adults; listed as compound 12): 0.004 percent concentration, wt:vol
LC50 (I. scapularis nymphs; [15]): 0.023 (0.017–0.03) percent concentration, wt:vol
LC90 (I. scapularis nymphs; [15]): 0.059 (0.042–0.116) percent concentration, wt:vol
LC50 (I. scapularis nymphs; 24 h exposure, 95% CI in parentheses, listed as compound 12): 0.023 percent concentration, wt:vol

C[C@@H]1CCC=C2CCC(C3(C)CO3)C[C@]21C (stereo partly drawn) [Compound 13, valencene-11,12-epoxide]
I. scapularis adults (4 wk), number killed/number tested [5]: 5/5
LC50 (Ae. aegypti adults; [11]): 2950 mg/L (≈ 13400 µM)
EC90 (Ae. aegypti adults; Aedes aegypti, 24 h): 19100 mg/L (≈ 86700 µM)
I. scapularis nymphs (24 h), number killed/number tested [6]: 10/10
I. scapularis nymphs (72 h), number killed/number tested [6]: 5/5
C. pipiens LD50 (Culex p. pipiens): <4.5 × 10^−3
mortality rate at the lowest tested dosage (Culex p. pipiens): 64%
mortality ([10]; 24 hour exposure at each test through 10 weeks, each group of arthropods): 100%
time at which biocidal activity began to dissipate below the 100% mortality level ([10]; vials treated with 2% solutions): 11 weeks
A. aegypti LD50 (Aedes aegypti): <4.5 × 10^−3
X. cheopis adults (5 wk), number killed/number tested [8]: 5/5
more effective than essential oil of Alaska yellow cedar (nymphal I. scapularis): about 98%
potency relative to essential oil of Alaska yellow cedar (nymphal I. scapularis): approximately 50 times
